Patent US12612360B2 (Sanofi, priority 2020, dated 2026)

Biological target: T1, ERα (Homo sapiens, UniProt P03372)
T1 construct: host or cells: MCF7
T1 sequence (P03372 1-595): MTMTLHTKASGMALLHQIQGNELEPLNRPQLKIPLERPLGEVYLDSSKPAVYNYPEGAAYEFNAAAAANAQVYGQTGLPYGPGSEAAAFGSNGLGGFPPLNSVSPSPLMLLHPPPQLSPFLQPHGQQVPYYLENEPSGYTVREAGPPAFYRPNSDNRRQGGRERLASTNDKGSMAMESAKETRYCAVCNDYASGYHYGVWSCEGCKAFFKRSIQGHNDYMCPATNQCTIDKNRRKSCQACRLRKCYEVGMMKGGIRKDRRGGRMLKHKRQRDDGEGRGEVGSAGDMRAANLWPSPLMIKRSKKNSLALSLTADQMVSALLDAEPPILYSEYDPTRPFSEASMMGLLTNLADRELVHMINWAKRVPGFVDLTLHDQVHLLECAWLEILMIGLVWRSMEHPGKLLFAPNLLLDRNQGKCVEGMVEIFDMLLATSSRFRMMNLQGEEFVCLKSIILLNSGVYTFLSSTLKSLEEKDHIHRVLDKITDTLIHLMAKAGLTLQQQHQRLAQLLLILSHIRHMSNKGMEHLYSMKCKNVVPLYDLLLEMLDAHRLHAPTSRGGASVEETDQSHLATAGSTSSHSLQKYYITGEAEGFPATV
Experiment: Estrogen receptor degradation activity: breast cancer cell ERα in cell western assay (MCF7 cells)
Assay type: cell-based
Conditions: for % Degradation At 0.3 μM: 4 hours, relative to fulvestrant 0.1 μM positive control; for DC50: 4 hours post compound addition, concentration which degrades 50% of the estrogen receptor, read-out: Degradation IC50
Method: Test: Estrogen Receptor Degradation Activity Said test involves measuring the in vitro degradation activity of the compounds of the Table 1a. The measurements of the degradation activities were made using a breast cancer cell ERα in cell western assay as described hereunder. MCF7 cells (ATCC) were seeded in 384 wells microplate (collagen coated) at a concentration of 10000 cells/30 μL per well in red phenol free MEM alpha medium (invitrogen) containing 5% charcoal dextran striped FBS. The following day, 9 points serial 1:5 dilution of each compound was added to the cells in 2.5 μL at final concentrations ranging from […] (in table 2), or 0.1 μM for fulvestrant (using as positive control). At 4 hours post compound addition the cells were fixed by adding 25 μL of formalin (final concentration 5% formalin containing 0.1% triton) for 10 minutes at room temperature and then washed twice with PBS. Then, 50 μL of LI-COR blocking buffer containing 0.1% Triton was added to plate for 30 minutes at room temperature. LI-COR blocking buffer was removed and cells were incubated overnight at cold room with 50 μL anti-ER rabbit monoclonal antibody (Thermo scientific MA1-39540) diluted at 1:1000 in LI-COR blocking buffer containing 0.1% tween-20. Wells which were treated with blocking buffer but no antibody were used as background control. Wells were washed twice with PBS (0.1% tween-20) and incubated at 37° C. for 60 minutes in LI-COR (0.1% tween-20) containing goat anti-rabbit antibody Alexa 488 (1:1000) and Syto-64 a DNA dye (2 μM final concentration). Cells were then washed 3 times in PBS and scanned in ACUMEN explorer (TTP-Labtech). Integrated intensities in the green fluorescence and red fluorescence were measured to determine the levels of ERα and DNA respectively. The degradation activity with respect to estrogen receptors in this test is given by the concentration which degrades 50% of the estrogen receptor (or IC50) in nM. […] DMSO−fulvestrant)).

| SMILES | % Degradation At 0.3 μM [%] | DC50 [nM] |
| --- | --- | --- |
| O=C(O)c1ccc2c(c1)CCCC(c1ccc(Cl)c(C(F)(F)F)c1)=C2c1ccc(C=C2CN(CCCF)C2)cc1 [Example 5, 8-(4-chloro-3-(trifluoromethyl)phenyl)-9-(4-((1-(3-fluoropropyl)azetidin-3-ylidene)methyl)phenyl)-6,7-dihydro-5H-benzo[7]annulene-3-carboxylic acid] | 88 | 1 |
| O=C(O)c1ccc2c(c1)CCCC(c1cccc3c1CCC3)=C2c1ccc(C=C2CN(CCC(F)F)C2)cc1 [Example 163, 9-(4-((1-(3,3-difluoropropyl)azetidin-3-ylidene)methyl)phenyl)-8-(2,3-dihydro-1H-inden-4-yl)-6,7-dihydro-5H-benzo[7]annulene-3-carboxylic acid] | 98 | 0.8 |
| Cc1cccc(C2=C(c3ccc(C=C4CN(CCC(F)F)C4)cc3)c3ccc(C(=O)O)cc3CCC2)c1Cl [Example 131, 8-(2-chloro-3-methylphenyl)-9-(4-((1-(3,3-difluoropropyl)azetidin-3-ylidene)methyl)phenyl)-6,7-dihydro-5H-benzo[7]annulene-3-carboxylic acid] | 95 | 1.1 |
| O=C(O)c1ccc2c(c1)CCCC(c1ncc(Cl)cc1C(F)(F)F)=C2c1ccc(C=C2CN(CCC(F)F)C2)cc1 [Example 125, 8-(5-chloro-3-(trifluoromethyl)pyridin-2-yl)-9-(4-((1-(3,3-difluoropropyl)azetidin-3-ylidene)methyl)phenyl)-6,7-dihydro-5H-benzo[7]annulene-3-carboxylic acid] | 91 | 0.7 |
| COc1ccc(C2=C(c3ccc(C=C4CN(CCCF)C4)cc3)c3ccc(C(=O)O)cc3CCC2)c(Cl)c1 [Example 75, 8-(2-chloro-4-methoxyphenyl)-9-(4-((1-(3-fluoropropyl)azetidin-3-ylidene)methyl)phenyl)-6,7-dihydro-5H-benzo[7]annulene-3-carboxylic acid] | 92 | 1.1 |
| Cl.O=C(O)c1ccc2c(c1)CCCC(c1cccc(C(F)(F)F)c1)=C2c1ccc(C=C2CN(CCCF)C2)cc1 [Example 182, 9-(4-((1-(3-fluoropropyl)azetidin-3-ylidene)methyl)phenyl)-8-(3-(trifluoromethyl)phenyl)-6,7-dihydro-5H-benzo[7]annulene-3-carboxylic acid hydrochloride] | 89 | 0.6 |
| O=C(O)c1ccc2c(c1)CCCC(c1ncc(F)cc1C(F)(F)F)=C2c1ccc(C=C2CN(CCCF)C2)cc1 [Example 18, 8-(5-fluoro-3-(trifluoromethyl)pyridin-2-yl)-9-(4-((1-(3-fluoropropyl)azetidin-3-ylidene)methyl)phenyl)-6,7-dihydro-5H-benzo[7]annulene-3-carboxylic acid] | 90 | 0.6 |
| O=C(O)c1ccc2c(c1)CCCC(c1cc(F)cc3c1CCC3)=C2c1ccc(C=C2CN(CCC(F)F)C2)cc1 [Example 162, 9-(4-((1-(3,3-difluoropropyl)azetidin-3-ylidene)methyl)phenyl)-8-(6-fluoro-2,3-dihydro-1H-inden-4-yl)-6,7-dihydro-5H-benzo[7]annulene-3-carboxylic acid] | 93 | 1.9 |
| COc1nccc(C2=C(c3ccc(C=C4CN(CCCF)C4)cc3)c3ccc(C(=O)O)cc3CCC2)c1F [Example 2, 8-(3-fluoro-2-methoxypyridin-4-yl)-9-(4-((1-(3-fluoropropyl)azetidin-3-ylidene)methyl)phenyl)-6,7-dihydro-5H-benzo[7]annulene-3-carboxylic acid] | 92 | 0.6 |

Continued by falling DC50, values first:

| % Degradation At 0.3 μM [%] | DC50 [nM] | SMILES |
| --- | --- | --- |
| 93 | 0.6 | Cc1c(C2=C(c3ccc(C=C4CN(CCC(F)F)C4)cc3)c3ccc(C(=O)O)cc3CCC2)ccc(Cl)c1F [Example 127, 8-(4-chloro-3-fluoro-2-methylphenyl)-9-(4-((1-(3,3-difluoropropyl)azetidin-3-ylidene)methyl)phenyl)-6,7-dihydro-5H-benzo[7]annulene-3-carboxylic acid] |
| 92 | 0.5 | Cc1c(C=C2CN(CCCF)C2)ccc(C2=C(c3ccc(Cl)cc3Cl)CCCc3cc(C(=O)O)ccc32)c1F.Cl [Example 74, 8-(2,4-dichlorophenyl)-9-(2-fluoro-4-((1-(3-fluoropropyl)azetidin-3-ylidene)methyl)-3-methylphenyl)-6,7-dihydro-5H-benzo[7]annulene-3-carboxylic acid hydrochloride] |
| 92 | 0.5 | O=C(O)c1ccc2c(c1)CCCC(c1cc(F)ccc1C(F)(F)F)=C2c1ccc(C=C2CN(CCCF)C2)cc1 [Example 153, 8-(5-fluoro-2-(trifluoromethyl)phenyl)-9-(4-((1-(3-fluoropropyl)azetidin-3-ylidene)methyl)phenyl)-6,7-dihydro-5H-benzo[7]annulene-3-carboxylic acid] |
| 93 | 0.5 | Cc1c(Cl)cccc1C1=C(c2ccc(C=C3CN(CCC(F)F)C3)cc2)c2ccc(C(=O)O)cc2CCC1 [Example 126, 8-(3-chloro-2-methylphenyl)-9-(4-((1-(3,3-difluoropropyl)azetidin-3-ylidene)methyl)phenyl)-6,7-dihydro-5H-benzo[7]annulene-3-carboxylic acid] |
| 88 | 0.4 | CC1(C)CCCC(C2=C(c3ccc(C=C4CN(CCCF)C4)cc3)c3ccc(C(=O)O)cc3CCC2)C1 (single isomer, unassigned) [Example 171, 8-(3,3-dimethylcyclohexyl)-9-(4-((1-(3-fluoropropyl)azetidin-3-ylidene)methyl)phenyl)-6,7-dihydro-5H-benzo[7]annulene-3-carboxylic acid] |
| 98 | 0.4 | Cc1cc(C=C2CN(CCCF)C2)cc(F)c1C1=C(c2ccc(Cl)cc2Cl)CCCc2cc(C(=O)O)ccc21.Cl [Example 66, 8-(2,4-dichlorophenyl)-9-(2-fluoro-4-((1-(3-fluoropropyl)azetidin-3-ylidene)methyl)-6-methylphenyl)-6,7-dihydro-5H-benzo[7]annulene-3-carboxylic acid hydrochloride] |
| 87 | 0.4 | CCOc1ccc(C2=C(c3ccc(C=C4CN(CCCF)C4)cc3)c3ccc(C(=O)O)cc3CCC2)cc1C(F)(F)F [Example 149, 8-(4-ethoxy-3-(trifluoromethyl)phenyl)-9-(4-((1-(3-fluoropropyl)azetidin-3-ylidene)methyl)phenyl)-6,7-dihydro-5H-benzo[7]annulene-3-carboxylic acid] |
| 90 | 0.3 | O=C(O)c1ccc2c(c1)CCCC(CC1CCC1)=C2c1ccc(C=C2CN(CCCF)C2)cc1 [Example 169, 8-(cyclobutylmethyl)-9-(4-((1-(3-fluoropropyl)azetidin-3-ylidene)methyl)phenyl)-6,7-dihydro-5H-benzo[7]annulene-3-carboxylic acid] |
| 101 | 0.2 | Cc1cc(C2=C(c3ccc(Cl)cc3Cl)CCCc3cc(C(=O)O)ccc32)cc(F)c1C=C1CN(CCCF)C1.Cl [Example 71, 8-(2,4-dichlorophenyl)-9-(3-fluoro-4-((1-(3-fluoropropyl)azetidin-3-ylidene)methyl)-5-methylphenyl)-6,7-dihydro-5H-benzo[7]annulene-3-carboxylic acid hydrochloride] |
| 93 | 0.2 | Cc1ccc(C2=C(c3ccc(C=C4CN(CCCF)C4)cc3)c3ccc(C(=O)O)cc3CCC2)c(F)c1 [Example 57, 8-(2-fluoro-4-methylphenyl)-9-(4-((1-(3-fluoropropyl)azetidin-3-ylidene)methyl)phenyl)-6,7-dihydro-5H-benzo[7]annulene-3-carboxylic acid] |
